One data set has as its system SH-SY5Y cells. Kind of data set: Rotenone-induced α-synuclein proteotoxicity in SH-SY5Y cells. Format: cell-based, human. The settings on record: SH-SY5Y expressing α-synuclein-GFP; pre-treatment 4 h (0.312-2.5 μM), rotenone 1.125 μM 24 h; approximately 30% without compounds. Here is the method:
Fig. 3 (A) HEK293 cells were treated with RUN compounds at a concentration of 7.5 μM for 16 hours. DMSO was used as a vehicle control. Proteasome chymotrypsin-like activity was measured in cell lysates at 37 °C. Data came from three biological replicates (n = 3). Statistical analysis was done using ratio paired t-tests corrected for multiple comparisons with Holm–Šídák's method (α = 0.05). *p < 0.05. Detailed results of the analysis are shown in SI Table S7. (B) RUN-89 protects against polyQ-mediated toxicity in an NFE2L1-dependent manner. HCT116 parental cells (WT) and two independent DDI2 knockout clones (KO 04 and KO 11), in which NFE2L1 activation is impaired, were transiently transfected with plasmids encoding non-aggregating EGFP-HttQ23 or aggregation-prone EGFP-HttQ74. Cells were treated with 1 or 3 μM RUN-89 for 48 hours, and viability was measured using the alamarBlue assay. […] Data are shown as the Geomean ± GeoSD from four independent biological replicates (n = 4). […] (C left) The protective effect of RUN compounds was assessed by rotenone-induced α-synuclein proteotoxicity in SH-SY5Y cells, which mimics the PD-like phenotype. […]
A second stress assay was performed using rotenone, a mitochondrial complex I inhibitor. […] After 4 hours, rotenone (1.125 μM) was added and one day later the viability of the cells was measured. […]

Data set [1] has as its system NFE2L1 pathway (DDI2-dependent) in HCT116 cells. Briefly: 3×PSMA4-ARE-LUC reporter in HCT116 WT and DDI2 knockout cells. Format: cell-based, human. How it is done:
Fig. 1 (A) Targeted library screening of RUN compounds using the 3×PSMA4-ARE-LUC dual reporter assay in HEK293 cells. Cells were exposed to RUN compounds (5 μM) for 16 hours, and luciferase activity was measured. Data are presented as the mean ± SD from three independent experiments (n = 3). Results are shown as a fold change in luminescence relative to DMSO-treated cells. Selected hit compounds are highlighted in distinct colours. (B) RUN-89 specifically activates the NFE2L1 pathway. The DDI2 knockout (KO) and parental (WT) HCT116 cells were transfected with the 3×PSMA4-ARE-LUC reporter and treated with 0.5 μM bortezomib (BTZ) and 5 μM RUN-89 for 16 hours. Data are presented as the Geomean ± GeoSD of three independent experiments (n = 3). Statistical analysis was performed on log2-transformed values using two-way repeated-measures ANOVA followed by Šídak's multiple comparison test. (C) RUN-89 selectively triggers downstream signaling events associated with NFE2L1 gene expression. HEK293 cells were transfected with lipid nanoparticles (LNPs) carrying siRNAs targeting NFE2L1 or NFE2L2. LNPs formulated with non-targeting siRNA served as a negative control. Following 24 hours of incubation, cells were treated with 7.5 μM RUN-89 or DMSO (vehicle) for an additional 16 hours. Expression of the proteasomal subunit gene PSMC4 was then quantified by RT-qPCR. Data are shown as the Geomean ± GeoSD from three independent biological replicates (n = 3). Log2-transformed data were analyzed using two-way repeated-measures ANOVA with the Geisser–Greenhouse correction, followed by Tukey's multiple comparison test with individual variances computed for each comparison. Additional results for NFE2L1, NFE2L2, PSMB7, and PSMD12 are presented in SI Fig. S10.
To clarify whether the representative compound RUN-89 activates the NFE2L1-specific luciferase reporter independently of the KEAP1–NFE2L2 pathway, we used the 3×PSMA4-ARE-LUC dual reporter in previously published DDI2 knockout HCT116 cells (from ATCC CCL-247 (RRID:CVCL_0291)), in which the protease essential for NFE2L1 activation is disrupted. […] These findings indicate that RUN-89 activates the reporter construct through NFE2L1.
2 Biology Experimental Procedures […]
Cell lines were sourced from the ATCC (USA) and/or ECACC (UK), namely HCT116 (human colorectal carcinoma), ATCC CCL-247 (RRID:CVCL_0291), HEK-293 (human embryonic kidney), ATCC CRL-1573 (RRID:CVCL_0045), SH-SY5Y (human neuroblastoma), ATCC CRL-2266 (RRID:CVCL_0019). The characteristics of DDI2 knockout cells derived from HCT116 cells have been described previously (Sedlacek et al., 2025). All cell lines were tested for mycoplasma contamination. Most of the cell lines were cultured in Dulbecco's Modified Eagle Medium (DMEM) enriched with 10% fetal bovine serum (FBS) and 2 mM L-glutamine, under standard conditions of 37 °C with 5% CO₂. DNA transfection was performed with Lipofectamine 2000, following the manufacturer's instructions. […]
alamarBlue assay according to the standard protocol.(1)
2.3 Dual luciferase phenotypic assays
HEK293-derived cells stably expressing the 3×PSMA4-ARE-Luc reporter were maintained at low to mid passage numbers before use. For each experiment, cells were transiently transfected with the pRL-TK Renilla luciferase plasmid using Lipofectamine 2000.
Approximately 5–6 hours post-transfection, cells were seeded into plate format according to the experiment (384-well plate mostly). On the following day, cells were treated with the indicated test compounds or DMSO vehicle control for 16 hours (unless otherwise specified).
After treatment, cells were lysed and luciferase activities were quantified using the Dual-Luciferase® Reporter Assay System according to the manufacturer’s instructions and established protocols.(2, 3) For assays using the CMV-XBP-Gluc construct encoding Gaussia […]

In the case of `COc1ccc(/C=C2\CC(NC(=O)C3CCCC3)C/C(=C\c3ccc(OC)c(OC)c3)C2=O)cc1OC` (centres unmarked) [RUN-89], in the data set with SH-SY5Y cells, the “Cell viability after rotenone treatment” value was “up to 70%”. For the same molecule, the “Mean log2-transformed reporter fold change, HCT116 KO 04” value in data set [1] (DDI2-/- clone KO 04, 0.5 μM BTZ or 5 μM RUN-89, 16 h, DMSO = 0) is 0.09237. Further, the “Mean log2-transformed reporter fold change, HCT116 KO 11” value in data set [1] (DDI2-/- clone KO 11, 0.5 μM BTZ or 5 μM RUN-89, 16 h, DMSO = 0) came out at 0.4773. In addition, in data set [1] (DDI2 knockout HCT116, in contrast to wild-type cells), the “Reporter activity in DDI2-deficient cells” value is “neither the proteasome inhibitor bortezomib nor RUN-89 induced reporter activity”. Moreover, in data set [1] (WT (DDI2+/+), 0.5 μM BTZ or 5 μM RUN-89, 16 h, DMSO = 0), the “Mean log2-transformed reporter fold change, HCT116 WT” value is listed as 1.7.

For the origin of these results see publication PMC12606464, “Investigating NFE2L1 activators for targeted protein aggregate clearance: a follow-up study” (RSC Medicinal Chemistry, 2025).
